Experimental findings from US10633417B2 (priority 2013, dated 2020) are described below.

In general, pIC50 refers to the negative decadic logarithm of the IC50, by convention in mol/L. Low values mean a large IC50, high ones a small IC50.

pIC50: −log10 of the molar value.

In one assay the target is human α9α10 nAChR (Homo sapiens, UniProt Q9GZZ6+Q9UGM1). Put plainly: cell-based. It is filed as cell-based.
Assay [1] concerns Sprague-Dawley rats. Conditions: rat, in vivo.
Assay [2] deals with Sprague-Dawley rats. Conditions: rat, in vivo. This is another data set of the same source.
The test system of assay [3] is Sprague-Dawley rats. Conditions: rat, in vivo. This is another data set of the same source.
Assay [4] concerns Sprague-Dawley rats. Conditions: rat, in vivo. The source holds these as a separate data set.
The next assay deals with Sprague Dawley rats. Conditions: rat, in vivo.

human α9α10 nAChR, sequence (Q9UGM1 26-479 limits assumed): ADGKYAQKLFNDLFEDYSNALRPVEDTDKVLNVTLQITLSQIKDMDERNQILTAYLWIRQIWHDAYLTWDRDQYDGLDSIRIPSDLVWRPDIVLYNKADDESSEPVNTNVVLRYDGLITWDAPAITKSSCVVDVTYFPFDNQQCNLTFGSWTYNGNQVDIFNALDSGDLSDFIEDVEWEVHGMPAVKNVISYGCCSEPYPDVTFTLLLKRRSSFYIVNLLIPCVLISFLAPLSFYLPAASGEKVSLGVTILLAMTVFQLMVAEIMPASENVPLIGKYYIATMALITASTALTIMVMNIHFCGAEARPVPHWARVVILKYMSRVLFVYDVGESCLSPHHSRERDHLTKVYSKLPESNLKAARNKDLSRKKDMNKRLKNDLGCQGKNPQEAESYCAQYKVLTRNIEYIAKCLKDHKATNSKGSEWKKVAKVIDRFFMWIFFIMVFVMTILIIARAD
human α9α10 nAChR, sequence (Q9GZZ6 25-450 limits assumed): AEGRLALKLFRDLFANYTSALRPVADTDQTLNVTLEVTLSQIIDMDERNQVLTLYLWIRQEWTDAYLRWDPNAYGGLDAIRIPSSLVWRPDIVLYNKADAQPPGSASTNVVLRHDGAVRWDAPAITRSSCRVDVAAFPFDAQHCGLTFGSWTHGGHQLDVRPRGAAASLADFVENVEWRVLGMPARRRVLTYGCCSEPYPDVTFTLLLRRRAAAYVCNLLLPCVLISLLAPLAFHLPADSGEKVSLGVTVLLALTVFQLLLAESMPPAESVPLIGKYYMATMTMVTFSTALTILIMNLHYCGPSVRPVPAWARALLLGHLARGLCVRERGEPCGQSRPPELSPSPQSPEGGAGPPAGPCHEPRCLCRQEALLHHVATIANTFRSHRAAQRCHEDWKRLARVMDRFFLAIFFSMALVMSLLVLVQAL

Regarding GCCTDPRCX2X3QCRRR [Analog 4], the “potency on the human receptor after further optimization of Analog 2” value at human α9α10 nAChR is “improved potency”.

Regarding `C[C@@H](O)[C@@H]1NC(=O)[C@@H]2CSSC[C@@H](C(=O)N[C@@H](Cc3ccc(O)cc3)C(=O)N[C@@H](Cc3ccc(O)cc3)C(=O)O)NC(=O)[C@H](CCC(N)=O)NC(=O)[C@H](Cc3ccc(O)c(I)c3)NC(=O)[C@H](CCCNC(N)=O)NC(=O)[C@H](CSSC[C@H](NC(=O)CN)C(=O)N2)NC(=O)[C@H](CCCNC(=N)N)NC(=O)[C@@H]2CCCN2C(=O)[C@H](CC(=O)O)NC1=O` [Analog 9], on human α9α10 nAChR, the Fold improvement is on record as 553 fold and the pIC50 is 9.05.

On human α9α10 nAChR, `C[C@@H](O)[C@@H]1NC(=O)[C@@H]2CSSC[C@@H](C(=O)N[C@@H](CCCNC(=N)N)C(=O)N[C@@H](CCCNC(=N)N)C(=O)N[C@@H](CCCNC(=N)N)C(=O)O)NC(=O)[C@H](CCC(N)=O)NC(=O)[C@H](Cc3ccc(O)c(I)c3)NC(=O)[C@H](CCCNC(N)=O)NC(=O)[C@H](CSSC[C@H](NC(=O)CN)C(=O)N2)NC(=O)[C@H](CCCNC(=N)N)NC(=O)[C@@H]2CCCN2C(=O)[C@H](CC(=O)O)NC1=O` [Analog 4] had a Fold improvement of 109 fold and a negative logarithm of the IC50 (pIC50) of 8.34.

`C[C@@H](O)[C@@H]1NC(=O)[C@@H]2CSSC[C@@H](C(=O)N[C@@H](Cc3ccc(O)cc3)C(=O)N[C@@H](CCCNC(=N)N)C(=O)N[C@@H](CCCNC(=N)N)C(=O)O)NC(=O)[C@H](CCC(N)=O)NC(=O)[C@H](Cc3ccc(O)c(I)c3)NC(=O)[C@H](CCCNC(N)=O)NC(=O)[C@H](CSSC[C@H](NC(=O)CN)C(=O)N2)NC(=O)[C@H](CCCNC(=N)N)NC(=O)[C@@H]2CCCN2C(=O)[C@H](CC(=O)O)NC1=O` [Analog 5]: at human α9α10 nAChR, the Fold improvement amounted to 325 fold and the pIC50 was 8.82.

Take `C[C@@H](O)[C@@H]1NC(=O)[C@@H]2CSSC[C@@H](C(=O)N[C@@H](Cc3c[nH]c4ccccc34)C(=O)O)NC(=O)[C@H](CCC(N)=O)NC(=O)[C@H](Cc3ccc(O)c(I)c3)NC(=O)[C@H](CCCNC(N)=O)NC(=O)[C@H](CSSC[C@H](NC(=O)CN)C(=O)N2)NC(=O)[C@H](CCCNC(=N)N)NC(=O)[C@@H]2CCCN2C(=O)[C@H](CC(=O)O)NC1=O` [Analog 8]: at human α9α10 nAChR, the Fold improvement is recorded as 236 fold and the pIC50 is 8.68.

Consider `C[C@@H](O)[C@@H]1NC(=O)[C@@H]2CSSC[C@@H](C(=O)N[C@@H](Cc3ccc(O)cc3)C(=O)O)NC(=O)[C@H](CCC(N)=O)NC(=O)[C@H](Cc3ccc(O)c(I)c3)NC(=O)[C@H](CCCNC(=N)N)NC(=O)[C@H](CSSC[C@H](NC(=O)CN)C(=O)N2)NC(=O)[C@H](CCCNC(=N)N)NC(=O)[C@@H]2CCCN2C(=O)[C@H](CC(=O)O)NC1=O` [Analog 11], for which, at human α9α10 nAChR, the Fold improvement is listed as 1,123 fold.

As for `C[C@@H](O)[C@@H]1NC(=O)[C@@H]2CSSC[C@@H](C(=O)N[C@@H](CCCNC(=N)N)C(=O)N[C@@H](CCCNC(=N)N)C(=O)N[C@@H](Cc3ccc(O)cc3)C(=O)O)NC(=O)[C@H](CCC(N)=O)NC(=O)[C@H](Cc3ccc(O)c(I)c3)NC(=O)[C@H](CCCNC(N)=O)NC(=O)[C@H](CSSC[C@H](NC(=O)CN)C(=O)N2)NC(=O)[C@H](CCCNC(=N)N)NC(=O)[C@@H]2CCCN2C(=O)[C@H](CC(=O)O)NC1=O` [Analog 6], at human α9α10 nAChR, the Fold improvement was found to be 120 fold and the negative-log IC50 (pIC50) is 8.39.

In the case of GCCTDPRCX2X3QCY [Analog 3], in the assay with Sprague-Dawley rats [1], the “OXA-induced pain threshold decrease (von Frey), day 7, 30 min” value was “reverted”; the “activity on mechanical allodynia (von Frey), days 14 and 21” value is “active”; the “analgesic effect (von Frey), day 7, 24 h later” value is “not observed”. Besides, in the assay on Sprague-Dawley rats [2], the “efficacy on mechanical hyperalgesia 24 h after injection” value is listed as “still significant”, the “pain threshold (mechanical hyperalgesia) 30 min after injection” value is given as “acutely increased pain threshold” and the “prevention of OXA-induced mechanical hyperalgesia” value is given as “significantly prevented”. For the same compound, in the assay on Sprague-Dawley rats [3], the “prevention of OXA-induced cold allodynia, day 7” value is on record as “able to prevent OXA-induced cold allodynia”; the “prevention of OXA-induced cold allodynia, day 14 and 21” value is on record as “able to prevent OXA-induced cold allodynia”. In addition, the “analgesic effect in OXA chemotherapy induced neuropathic pain” value in the assay with Sprague-Dawley rats [4] is reported as “analgesic effect”. At human α9α10 nAChR, the “potency on the human receptor after further optimization of Analog 2” value is listed as “improved potency”.

GCCTDPRCRX3QCY [Analog 11]: the “burn-induced thermal hyperalgesia (Hargraves method)” value in the assay on Sprague Dawley rats is recorded as “significantly reduced”.

As for `C[C@@H](O)[C@@H]1NC(=O)[C@@H]2CSSC[C@@H](C(=O)N[C@@H](Cc3ccc(O)cc3)C(=O)N[C@@H](CCCNC(=N)N)C(=O)O)NC(=O)[C@H](CCC(N)=O)NC(=O)[C@H](Cc3ccc(O)c(I)c3)NC(=O)[C@H](CCCNC(N)=O)NC(=O)[C@H](CSSC[C@H](NC(=O)CN)C(=O)N2)NC(=O)[C@H](CCCNC(=N)N)NC(=O)[C@@H]2CCCN2C(=O)[C@H](CC(=O)O)NC1=O` [Analog 10], on human α9α10 nAChR, the Fold improvement was determined as 598 fold and the pIC50 is 9.08.

On human α9α10 nAChR, `C[C@@H](O)[C@@H]1NC(=O)[C@@H]2CSSC[C@@H](C(=O)N[C@@H](Cc3ccccc3)C(=O)O)NC(=O)[C@H](CCC(N)=O)NC(=O)[C@H](Cc3ccc(O)c(I)c3)NC(=O)[C@H](CCCNC(N)=O)NC(=O)[C@H](CSSC[C@H](NC(=O)CN)C(=O)N2)NC(=O)[C@H](CCCNC(=N)N)NC(=O)[C@@H]2CCCN2C(=O)[C@H](CC(=O)O)NC1=O` [Analog 7] had a Fold improvement of 470 fold and a pIC50 of 8.98.

Take `C[C@@H](O)[C@@H]1NC(=O)[C@@H]2C[Se]SC[C@@H](C(=O)N[C@@H](CCCNC(=N)N)C(=O)O)NC(=O)[C@H](CCC(N)=O)NC(=O)[C@H](Cc3ccc(O)c(I)c3)NC(=O)[C@H](CCCNC(N)=O)NC(=O)[C@H](CS[Se]C[C@H](NC(=O)CN)C(=O)N2)NC(=O)[C@H](CCCNC(=N)N)NC(=O)[C@@H]2CCCN2C(=O)[C@H](CC(=O)O)NC1=O` [SEQ ID NO:20, GX4X4TDPRCX2X3QCR]: on human α9α10 nAChR, the Fold improvement is listed as 5.7 fold and the “fold increase in potency on the human receptor” value is recorded as 10 fold.
